Laboratory results reported in paper PMC2248166, “Quantitative peptide binding motifs for 19 human and mouse MHC class I molecules derived using positional scanning combinatorial peptide libraries” (Immunome Research, 2008).
Where a SMILES comes first, the peptide text is derived from it.

Biological target: HLA A*3001 (Homo sapiens, UniProt P04439, D140H/D185E/E176W/F33S/G80R/H175R/K168Q/R138E/R41S)
Assay: biochemical
Type: binding

HLA A*3001, sequence (P04439 25-365 limits assumed, stated change not applied): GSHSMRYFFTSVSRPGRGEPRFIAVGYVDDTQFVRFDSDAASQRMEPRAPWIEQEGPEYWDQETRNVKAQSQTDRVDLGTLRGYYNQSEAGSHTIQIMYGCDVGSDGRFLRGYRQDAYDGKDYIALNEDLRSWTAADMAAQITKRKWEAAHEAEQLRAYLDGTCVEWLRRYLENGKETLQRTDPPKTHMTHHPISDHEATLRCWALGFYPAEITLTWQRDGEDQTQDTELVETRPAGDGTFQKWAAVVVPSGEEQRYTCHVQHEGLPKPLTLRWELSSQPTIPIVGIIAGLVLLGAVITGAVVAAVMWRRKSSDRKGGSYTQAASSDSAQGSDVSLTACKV

Row | Structure (SMILES) | IC50
1 | C[C@@H](O)[C@H](NC(=O)[C@@H](N)CCCNC(=N)N)C(=O)N[C@@H](Cc1c[nH]cn1)C(=O)N[C@@H](Cc1ccccc1)C(=O)N[C@@H](CO)C(=O)N[C@@H](CCC(N)=O)C(=O)N1CCC[C@H]1C(=O)N[C@@H](CO)C(=O)NCC(=O)O [3102.0048] (H-RTHFSQPSG-OH) | 15 nM
2 | CC(C)C[C@H](NC(=O)[C@H](Cc1ccc(O)cc1)NC(=O)[C@H](CC(C)C)NC(=O)[C@H](Cc1ccccc1)NC(=O)[C@H](C)NC(=O)[C@H](Cc1ccccc1)NC(=O)[C@H](CCCNC(=N)N)NC(=O)[C@H](Cc1ccc(O)cc1)NC(=O)[C@@H](N)CCCNC(=N)N)C(=O)O [3102.0049] (H-RYRFAFLYL-OH) | 0.17 nM
3 | CC[C@H](C)[C@H](NC(=O)[C@H](Cc1c[nH]cn1)NC(=O)[C@H](Cc1ccccc1)NC(=O)[C@H](CO)NC(=O)[C@@H](NC(=O)[C@@H](N)CCCCN)[C@@H](C)O)C(=O)N[C@H](C(=O)N[C@@H](Cc1ccccc1)C(=O)N[C@@H](CC(C)C)C(=O)O)[C@@H](C)CC [3102.0050] (H-KTSFHIIFL-OH) | 25 nM
4 | CC[C@H](C)[C@H](NC(=O)[C@H](CC(N)=O)NC(=O)[C@H](CC(=O)O)NC(=O)[C@H](CO)NC(=O)[C@H](CCCNC(=N)N)NC(=O)[C@@H](NC(=O)[C@@H](N)CCCCN)[C@@H](C)CC)C(=O)N[C@@H](CCCCN)C(=O)N[C@@H](CCCCN)C(=O)O [3102.0051] (H-KIRSDNIKK-OH) | 12 nM
5 | CC[C@H](C)[C@H](NC(=O)[C@H](Cc1ccc(O)cc1)NC(=O)[C@@H](NC(=O)[C@H](CCCCN)NC(=O)[C@H](CCCCN)NC(=O)[C@H](Cc1ccccc1)NC(=O)[C@@H](N)CCCNC(=N)N)C(C)C)C(=O)N[C@@H](CC(C)C)C(=O)N[C@H](C(=O)O)C(C)C [3102.0055] (H-RFKKVYILV-OH) | 13 nM
6 | CC[C@H](C)[C@H](NC(=O)[C@H](CCCNC(=N)N)NC(=O)[C@H](CC(N)=O)NC(=O)[C@@H](NC(=O)[C@H](CCC(=O)O)NC(=O)[C@H](CCCCN)NC(=O)[C@@H](NC(=O)[C@@H](N)CCCCN)[C@@H](C)O)[C@@H](C)O)C(=O)N[C@@H](Cc1ccc(O)cc1)C(=O)O [3102.0056] (H-KTKETNRIY-OH) | 11 nM
7 | CC[C@H](C)[C@H](NC(=O)[C@H](CCCNC(=N)N)NC(=O)CNC(=O)[C@@H](N)CCCCN)C(=O)N[C@@H](CO)C(=O)N[C@@H](Cc1ccc(O)cc1)C(=O)N[C@@H](Cc1ccc(O)cc1)C(=O)N[C@@H](CCC(=O)O)C(=O)N[C@@H](CCSC)C(=O)O [3102.0058] (H-KGRISYYEM-OH) | 14 nM
8 | CSCC[C@H](NC(=O)[C@H](CC(N)=O)NC(=O)[C@H](CCCNC(=N)N)NC(=O)[C@@H](NC(=O)[C@@H](N)CCCNC(=N)N)[C@@H](C)O)C(=O)N[C@@H](Cc1ccccc1)C(=O)N[C@@H](CCCNC(=N)N)C(=O)N[C@@H](CCCCN)C(=O)N[C@@H](CCCCN)C(=O)O [3102.0060] (H-RTRNMFRKK-OH) | 0.089 nM
9 | CC[C@H](C)[C@H](NC(=O)[C@H](C)NC(=O)[C@H](CO)NC(=O)[C@@H](NC(=O)[C@H](CO)NC(=O)[C@@H](NC(=O)[C@@H](N)CCCNC(=N)N)C(C)C)C(C)C)C(=O)N[C@@H](CC(C)C)C(=O)N[C@@H](CC(C)C)C(=O)O [3102.0061] (H-RVSVSAILL-OH) | 15 nM
10 | CSCC[C@H](NC(=O)[C@H](CC(C)C)NC(=O)[C@@H](NC(=O)[C@@H](N)Cc1c[nH]cn1)C(C)C)C(=O)N[C@@H](Cc1c[nH]cn1)C(=O)N[C@@H](CO)C(=O)N1CCC[C@H]1C(=O)N[C@@H](CC(C)C)C(=O)N[C@H](C(=O)O)C(C)C [3102.0062] (H-HVLMHSPLV-OH) | 30 nM
11 | CC[C@H](C)[C@H](N)C(=O)N[C@@H](CO)C(=O)N[C@@H](CCCNC(=N)N)C(=O)N[C@@H](CO)C(=O)N[C@@H](CCCNC(=N)N)C(=O)N[C@@H](CCCNC(=N)N)C(=O)N[C@@H](CC(C)C)C(=O)N[C@@H](Cc1ccccc1)C(=O)N[C@@H](C)C(=O)O [3102.0065] (H-ISRSRRLFA-OH) | 2.2 nM
12 | CC[C@H](C)[C@H](NC(=O)[C@@H](NC(=O)[C@@H](NC(=O)[C@H](CC(=O)O)NC(=O)[C@H](CCCCN)NC(=O)[C@@H](NC(=O)[C@H](C)N)C(C)C)C(C)C)[C@@H](C)O)C(=O)N[C@H](C(=O)N[C@@H](CCCCN)C(=O)O)[C@@H](C)O [3102.0067] (H-AVKDVTITK-OH) | 2.2 nM
13 | CC(C)[C@H](NC(=O)[C@@H](N)Cc1c[nH]cn1)C(=O)N[C@@H](Cc1ccc(O)cc1)C(=O)N[C@@H](CC(=O)O)C(=O)N[C@@H](Cc1ccccc1)C(=O)N[C@@H](CCC(=O)O)C(=O)N1CCC[C@H]1C(=O)N[C@@H](Cc1ccc(O)cc1)C(=O)N[C@@H](Cc1ccc(O)cc1)C(=O)O [3102.0068] (H-HVYDFEPYY-OH) | 27 nM
14 | CC[C@H](C)[C@H](NC(=O)[C@H](CCCNC(=N)N)NC(=O)[C@H](CCC(N)=O)NC(=O)[C@@H](N)CCSC)C(=O)N[C@H](C(=O)N[C@@H](CO)C(=O)N[C@@H](CC(C)C)C(=O)N[C@@H](CO)C(=O)N[C@H](C(=O)O)C(C)C)[C@@H](C)CC [3102.0069] (H-MQRIISLSV-OH) | 8.8 nM
15 | CC(C)[C@H](NC(=O)[C@H](CO)NC(=O)[C@@H]1CCCN1C(=O)[C@H](CO)NC(=O)[C@H](C)NC(=O)[C@H](Cc1ccc(O)cc1)NC(=O)[C@H](Cc1ccccc1)NC(=O)CNC(=O)[C@@H](N)CCCCN)C(=O)O [3102.0070] (H-KGFYASPSV-OH) | 2.7 nM
16 | CC(C)[C@H](NC(=O)[C@H](CCC(N)=O)NC(=O)[C@@H](NC(=O)[C@H](CCCNC(=N)N)NC(=O)[C@H](CCC(=O)O)NC(=O)[C@@H](NC(=O)[C@H](CCCNC(=N)N)NC(=O)[C@H](CO)NC(=O)[C@@H](N)CCCCN)C(C)C)C(C)C)C(=O)O [3102.0075] (H-KSRVERVQV-OH) | 11 nM
17 | CC[C@H](C)[C@H](NC(=O)[C@H](CC(N)=O)NC(=O)[C@@H](NC(=O)[C@@H](NC(=O)[C@H](Cc1ccccc1)NC(=O)[C@@H](NC(=O)[C@H](C)N)[C@@H](C)O)[C@@H](C)O)C(C)C)C(=O)N[C@@H](Cc1ccccc1)C(=O)N[C@@H](CCCCN)C(=O)O [3102.0081] (H-ATFTVNIFK-OH) | 3.1 nM
18 | CC(C)C[C@H](NC(=O)[C@H](CCCNC(=N)N)NC(=O)[C@@H](NC(=O)[C@@H](N)CCCNC(=N)N)C(C)C)C(=O)N[C@@H](CCCNC(=N)N)C(=O)N[C@@H](Cc1ccc(O)cc1)C(=O)N[C@@H](CCCNC(=N)N)C(=O)N[C@@H](CO)C(=O)NCC(=O)O [3102.0082] (H-RVRLRYRSG-OH) | 13 nM
19 | CC[C@H](C)[C@H](NC(=O)[C@@H](N)CCCNC(=N)N)C(=O)N[C@@H](CCCNC(=N)N)C(=O)N[C@@H](Cc1ccccc1)C(=O)N[C@@H](Cc1ccccc1)C(=O)N[C@@H](Cc1ccc(O)cc1)C(=O)N[C@@H](CCCNC(=N)N)C(=O)N[C@@H](CCCCN)C(=O)N[C@@H](CCCCN)C(=O)O [3102.0083] (H-RIRFFYRKK-OH) | 0.17 nM
20 | CC[C@H](C)[C@H](NC(=O)[C@H](CCSC)NC(=O)[C@H](CC(C)C)NC(=O)[C@@H]1CCCN1C(=O)[C@H](CCCNC(=N)N)NC(=O)[C@H](Cc1ccccc1)NC(=O)[C@@H](N)CCCCN)C(=O)N[C@@H](Cc1ccccc1)C(=O)N[C@@H](CCSC)C(=O)O [3102.0084] (H-KFRPLMIFM-OH) | 1.8 nM
21 | CC[C@H](C)[C@H](NC(=O)[C@@H](NC(=O)[C@H](Cc1c[nH]c2ccccc12)NC(=O)[C@H](Cc1ccccc1)NC(=O)CNC(=O)[C@H](CO)NC(=O)[C@H](CCCNC(=N)N)NC(=O)[C@H](Cc1ccc(O)cc1)NC(=O)[C@@H](N)CCCNC(=N)N)[C@@H](C)CC)C(=O)O [3102.0085] (H-RYRSGFWII-OH) | 8.7 nM
22 | CC[C@H](C)[C@H](NC(=O)[C@H](Cc1ccccc1)NC(=O)[C@H](Cc1ccccc1)NC(=O)[C@H](CO)NC(=O)[C@H](CC(N)=O)NC(=O)[C@H](CO)NC(=O)[C@H](CC(C)C)NC(=O)[C@@H](N)Cc1c[nH]cn1)C(=O)N[C@@H](CCCCN)C(=O)O [3102.0086] (H-HLSNSFFIK-OH) | 17 nM
23 | CC[C@H](C)[C@H](NC(=O)[C@@H](NC(=O)[C@H](CC(N)=O)NC(=O)[C@H](CCCCN)NC(=O)[C@H](CO)NC(=O)[C@@H](N)CCCNC(=N)N)[C@@H](C)O)C(=O)N[C@H](C(=O)N[C@H](C(=O)N[C@@H](C)C(=O)O)[C@@H](C)CC)[C@@H](C)CC [3102.0089] (H-RSKNTIIIA-OH) | 0.16 nM
24 | CSCC[C@H](N)C(=O)N[C@@H](CCC(N)=O)C(=O)N[C@@H](CCCCN)C(=O)N[C@@H](CS)C(=O)N[C@@H](Cc1ccc(O)cc1)C(=O)N[C@@H](Cc1ccccc1)C(=O)N[C@@H](CO)C(=O)N[C@@H](Cc1ccc(O)cc1)C(=O)N[C@@H](CCCCN)C(=O)O [3102.0090] (H-MQKCYFSYK-OH) | 0.53 nM
25 | CC[C@H](C)[C@H](NC(=O)[C@@H](N)CCCCN)C(=O)N[C@@H](CCCCN)C(=O)N[C@@H](CO)C(=O)N[C@@H](CO)C(=O)N[C@@H](CC(N)=O)C(=O)N[C@@H](CO)C(=O)N[C@@H](CO)C(=O)N[C@@H](CCCCN)C(=O)O [3102.0091] (H-KIKSSNSSK-OH) | 15 nM
26 | CC[C@H](C)[C@H](NC(=O)[C@H](CC(N)=O)NC(=O)CNC(=O)[C@H](CC(N)=O)NC(=O)[C@H](CCCCN)NC(=O)[C@@H](NC(=O)[C@H](C)N)[C@@H](C)O)C(=O)N[C@@H](Cc1ccccc1)C(=O)N[C@H](C(=O)O)C(C)C [3102.0093] (H-ATKNGNIFV-OH) | 3.9 nM
27 | CC[C@H](C)[C@H](NC(=O)[C@H](CC(C)C)NC(=O)[C@H](C)NC(=O)[C@@H](NC(=O)[C@H](Cc1c[nH]cn1)NC(=O)[C@@H](NC(=O)[C@@H](N)CCCNC(=N)N)[C@@H](C)O)[C@@H](C)O)C(=O)N[C@@H](Cc1ccccc1)C(=O)N[C@@H](CC(C)C)C(=O)O [3102.0094] (H-RTHTALIFL-OH) | 0.7 nM
28 | CC[C@H](C)[C@H](NC(=O)[C@@H](NC(=O)[C@H](CCCCN)NC(=O)[C@H](CO)NC(=O)[C@H](C)N)[C@@H](C)O)C(=O)N[C@@H](CC(N)=O)C(=O)N[C@@H](C)C(=O)N[C@@H](CC(C)C)C(=O)N[C@H](C(=O)O)C(C)C [3102.0095] (H-ASKTINALV-OH) | 0.18 nM
29 | CC[C@H](C)[C@H](NC(=O)[C@H](CCC(N)=O)NC(=O)[C@H](Cc1c[nH]cn1)NC(=O)[C@H](CO)NC(=O)[C@H](CCC(=O)O)NC(=O)[C@H](CCCCN)NC(=O)[C@@H](NC(=O)[C@@H](N)C(C)C)[C@@H](C)O)C(=O)N[C@@H](CCCCN)C(=O)O [3102.0096] (H-VTKESHQIK-OH) | 1.5 nM
